The source of these data is publication doi:10.1101/2025.03.14.643404, “A Bivalent Molecular Glue Linking Lysine Acetyltransferases to Oncogene-induced Cell Death” (bioRxiv, 2025).

Like-named read-outs stand apart in the source and are kept apart here.

In this assay the target is T1, BCL6^BTB (Homo sapiens, UniProt P41182+Q09472, C67R/C84N/C8Q).
T1 construct: human BCL6 (residues 5–129; Uniprot: P41182); Trx (N, cleaved yes); 6xHis (N, cleaved yes); made in house; host or cells: bacteria (pET-48b(+) vector)
Put plainly: Isothermal calorimetry, BCL6BTB titrations. As to conditions: ITC; for Kd: 25 °C. The class given is binding. How it is done: 12 hours prior to performing ITC, frozen stocks of 6xHis-p300^BD and BCL6^BTB were dialyzed for two hours in ITC buffer at 4°C (50 mM HEPES pH 7.4, 100 μM TCEP, 150 mM NaCl), followed by dialysis in fresh ITC buffer overnight at 4°C to remove glycerol and equalize protein mixtures. Samples were centrifuged at 10,000g for 10 min to remove any precipitate. In all titrations, DMSO was added to protein mixtures to match the DMSO concentration of ligand dissolved in ITC buffer. For binary assays with TCIP3, dialyzed 6xHis-p300^BD or BCL6^BTB were titrated from the syringe into a cell containing TCIP3 dissolved in ITC buffer. For p300 titrations, 50 μM or 25 μM protein was titrated into 5 μM or 2.5 μM, respectively, of TCIP3. For BCL6 titrations, 70 μM or 40 μM protein was titrated into 7 μM or 5 μM, respectively, of TCIP3. For ternary titrations, 20× 6xHis-p300^BD was incubated with 1x TCIP3 in the cell to drive saturation of the binary complex, followed by a titration of 10x BCL6^BTB from the syringe, at 310 rpm stirring at 25°C. The following concentrations were used in each run: 15 μM BCL6^BTB, 30 μM p300, and 1.5 μM TCIP3; 18 μM BCL6 ^BTB, 36 μM 6xHis-p300^BD, and 1.8 μM TCIP3; or 10 μM BCL6 ^BTB, 20 μM 6xHis-p300^BD, and 1 μM TCIP3. Alternatively, 20x BCL6^BTB was incubated with 1x TCIP3 in the cell to drive saturation of the binary complex, followed by a titration of 10× 6xHis-p300^BD from the syringe, at 310 rpm stirring at 25°C. The following concentrations were used in each run: 30 μM BCL6, 15 μM 6xHis-p300^BD, and 1.5 μM TCIP3; 20 μM BCL6 ^BTB, 10 μM 6xHis-p300^BD, and 1 μM TCIP3; or 40 μM BCL6 ^BTB, 20 μM 6xHis-p300^BD, and 2 μM TCIP3. The first one or two injections and outliers from instrument noise were routinely excluded. Data were fit to a one-site model using MicroCal LLC Origin software. The following injection parameters were used for each run: (Total injection number: 35; Cell temp: 25 °C; Ref power: 10; Initial delay: 250 s; stirring speed: 310; Feedback mode: High; volume: 8 μL; Duration: 13.7 s; Filter period: 2; initial injection volume: 2 μL).

Take `CNC(=O)COc1cc2cc(Nc3nc(N4CCC(C(=O)N5CCN(CCC(=O)N6CCC(n7nc(N8CCCc9cc(-c%10cnn(C)c%10)c(C(F)F)cc98)c8c7CCN(C(=O)NC)C8)CC6)CC5)CC4)ncc3Cl)cc(OC)c2n(C)c1=O` [TCIP3]: the Kd reads like this: (BCL6BTB titrated into TCIP3, read-out: Kd, binary BCL6:TCIP3) 0.265 µM; (BCL6BTB titrated into p300BD-saturated TCIP3, read-out: Kd, BCL6 into p300:TCIP3 (ternary)) 0.0198 µM. Moreover, the “α BCL6 into p300:TCIP3” value (α = Kd binary/Kd ternary) came out at 13.
